Measured values as given in PubChem BioAssay AID1963441 (Molecular Pharmacology Branch, DTP, NCI, 2024).

Test system: NCI-H1876 complex spheroid growth, % test/control
Experiment: Anticancer human tumor NCI-H1876 cell line growth inhibition [Asc];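 further: compound exposure lasted 7 days starting three days after seeding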;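 on viability, T/C: 100% = DMSO vehicle control wells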
Conditions: for IC50: curve of first compound; for viability, T/C: stronger effect = lower value; active means viability on the fitted dose curve at most 10% of control; inactive means the rest
Method in brief: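 Complex spheroids combining tumor cells with HUVEC endothelial cells and human MSCs, at 37 degrees C, 5% CO2; agents tested alone or combined, half-log dilutions from at or near clinical Cmax, or 10 microM if Cmax unknown.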

C#Cc1c(F)ccc2cc(O)cc(-c3ncc4c(N5CC6CCC(C5)N6)nc(OCC56CCCN5CC(F)C6)nc4c3F)c12 (centres undefined) + Cc1c(S(C)(=O)=O)c(-c2cc(F)cc(N3CCN(c4ccc(NS(=O)(=O)c5ccc(NC(CCN6CCC(C(=O)OCCCP(=O)(O)O)CC6)CSc6ccccc6)c(S(=O)(=O)C(F)(F)F)c5)cc4)CC3)c2)c(-c2ccc(Cl)cc2)n1C(C)C
> 10 µM: IC50 (second compound 0.0316 µM) | IC50 (second compound 0.1 µM) | IC50 (second compound 0.316 µM) | IC50 (second compound 1 µM) | IC50 (second compound 3.16 µM) | IC50 (second compound 10 µM)
inactive: viability, T/C (second compound 0.0316 µM, first compound 0.0316 µM) 98.7% | viability, T/C (second compound 0.0316 µM, first compound 0.1 µM) 84.9% | viability, T/C (second compound 0.0316 µM, first compound 0.316 µM) 108% | viability, T/C (second compound 0.0316 µM, first compound 1 µM) 91.2% | viability, T/C (second compound 0.0316 µM, first compound 3.16 µM) 96.8% | viability, T/C (second compound 0.0316 µM, first compound 10 µM) 92.9% | viability, T/C (second compound 0.1 µM, first compound 0.0316 µM) 92.2% | viability, T/C (second compound 0.1 µM, first compound 0.1 µM) 101% | viability, T/C (second compound 0.1 µM, first compound 0.316 µM) 99.3% | viability, T/C (second compound 0.1 µM, first compound 1 µM) 83.1% | viability, T/C (second compound 0.1 µM, first compound 3.16 µM) 90.6% | viability, T/C (second compound 0.1 µM, first compound 10 µM) 88% | viability, T/C (second compound 0.316 µM, first compound 0.0316 µM) 106% | viability, T/C (second compound 0.316 µM, first compound 0.1 µM) 90.5% | viability, T/C (second compound 0.316 µM, first compound 0.316 µM) 85.5% | viability, T/C (second compound 0.316 µM, first compound 1 µM) 90.7% | viability, T/C (second compound 0.316 µM, first compound 3.16 µM) 86.5% | viability, T/C (second compound 0.316 µM, first compound 10 µM) 86.7% | viability, T/C (second compound 1 µM, first compound 0.0316 µM) 90% | viability, T/C (second compound 1 µM, first compound 0.1 µM) 97.8% | viability, T/C (second compound 1 µM, first compound 0.316 µM) 102% | viability, T/C (second compound 1 µM, first compound 1 µM) 92% | viability, T/C (second compound 1 µM, first compound 3.16 µM) 88.2% | viability, T/C (second compound 1 µM, first compound 10 µM) 73.5% | viability, T/C (second compound 3.16 µM, first compound 0.0316 µM) 101% | viability, T/C (second compound 3.16 µM, first compound 0.1 µM) 108% | viability, T/C (second compound 3.16 µM, first compound 0.316 µM) 89.5% | viability, T/C (second compound 3.16 µM, first compound 1 µM) 87.4% | viability, T/C (second compound 3.16 µM, first compound 3.16 µM) 87.3% | viability, T/C (second compound 3.16 µM, first compound 10 µM) 74.7% | viability, T/C (second compound 10 µM, first compound 0.0316 µM) 93.2% | viability, T/C (second compound 10 µM, first compound 0.1 µM) 99.4% | viability, T/C (second compound 10 µM, first compound 0.316 µM) 109% | viability, T/C (second compound 10 µM, first compound 1 µM) 93.6% | viability, T/C (second compound 10 µM, first compound 3.16 µM) 95.8% | viability, T/C (second compound 10 µM, first compound 10 µM) 77%

Cc1nc(N2CCC3(CC2)COC(C)C3N)c(CO)nc1Sc1ccnc(N)c1Cl (centres undefined) + Cc1c(S(C)(=O)=O)c(-c2cc(F)cc(N3CCN(c4ccc(NS(=O)(=O)c5ccc(NC(CCN6CCC(C(=O)OCCCP(=O)(O)O)CC6)CSc6ccccc6)c(S(=O)(=O)C(F)(F)F)c5)cc4)CC3)c2)c(-c2ccc(Cl)cc2)n1C(C)C
> 3 µM: IC50 (second compound 0.0316 µM) | IC50 (second compound 0.1 µM) | IC50 (second compound 0.316 µM) | IC50 (second compound 1 µM) | IC50 (second compound 3.16 µM) | IC50 (second compound 10 µM)
inactive: viability, T/C (second compound 0.0316 µM, first compound 0.00949 µM) 106% | viability, T/C (second compound 0.0316 µM, first compound 0.03 µM) 86.8% | viability, T/C (second compound 0.0316 µM, first compound 0.0949 µM) 90.2% | viability, T/C (second compound 0.0316 µM, first compound 0.3 µM) 78.7% | viability, T/C (second compound 0.0316 µM, first compound 0.949 µM) 83.2% | viability, T/C (second compound 0.0316 µM, first compound 3 µM) 79.4% | viability, T/C (second compound 0.1 µM, first compound 0.00949 µM) 95.7% | viability, T/C (second compound 0.1 µM, first compound 0.03 µM) 101% | viability, T/C (second compound 0.1 µM, first compound 0.0949 µM) 93.7% | viability, T/C (second compound 0.1 µM, first compound 0.3 µM) 88% | viability, T/C (second compound 0.1 µM, first compound 0.949 µM) 84.2% | viability, T/C (second compound 0.1 µM, first compound 3 µM) 82.6% | viability, T/C (second compound 0.316 µM, first compound 0.00949 µM) 81.8% | viability, T/C (second compound 0.316 µM, first compound 0.03 µM) 89.7% | viability, T/C (second compound 0.316 µM, first compound 0.0949 µM) 92.2% | viability, T/C (second compound 0.316 µM, first compound 0.3 µM) 75.7% | viability, T/C (second compound 0.316 µM, first compound 0.949 µM) 88.4% | viability, T/C (second compound 0.316 µM, first compound 3 µM) 81.6% | viability, T/C (second compound 1 µM, first compound 0.00949 µM) 94.2% | viability, T/C (second compound 1 µM, first compound 0.03 µM) 92% | viability, T/C (second compound 1 µM, first compound 0.0949 µM) 81.5% | viability, T/C (second compound 1 µM, first compound 0.3 µM) 83.8% | viability, T/C (second compound 1 µM, first compound 0.949 µM) 93.7% | viability, T/C (second compound 1 µM, first compound 3 µM) 74.2% | viability, T/C (second compound 3.16 µM, first compound 0.00949 µM) 90.1% | viability, T/C (second compound 3.16 µM, first compound 0.03 µM) 88.7% | viability, T/C (second compound 3.16 µM, first compound 0.0949 µM) 83.7% | viability, T/C (second compound 3.16 µM, first compound 0.3 µM) 84.9% | viability, T/C (second compound 3.16 µM, first compound 0.949 µM) 83.3% | viability, T/C (second compound 3.16 µM, first compound 3 µM) 80.7% | viability, T/C (second compound 10 µM, first compound 0.00949 µM) 103% | viability, T/C (second compound 10 µM, first compound 0.03 µM) 88.8% | viability, T/C (second compound 10 µM, first compound 0.0949 µM) 85.3% | viability, T/C (second compound 10 µM, first compound 0.3 µM) 92.4% | viability, T/C (second compound 10 µM, first compound 0.949 µM) 96.7% | viability, T/C (second compound 10 µM, first compound 3 µM) 70.3%
